Data reported in patent US8026359B2, “Fungicidal heterocyclic amines” (E.I. du Pont de Nemours and Company, priority 2007, dated 2011).
Marks after values point to notes of the source that are not given here.

What was measured:
Type in all cases: in vivo
[1] = tested on: Puccinia recondita f. sp. tritici; assay: Test B: wheat leaf rust, preventive spray on wheat seedlings; settings: 200 ppm, 100 = 100% disease control, 0 = no control relative to controls; for pest or weed control at 200 ppm: Puccinia recondita, 192 h, read-out: Test B disease control rating
Excerpt: (§1) General protocol for preparing test suspensions for Tests A-R: The test compounds were first dissolved in acetone in an amount equal to 3% of the final volume and then suspended at the desired concentration (in ppm) in acetone and purified water (50/50 mix) containing 250 ppm of the surfactant Trem® 014 (polyhydric alcohol esters). The resulting test suspensions were then used in tests A-R. In Tests A-M, compounds were sprayed as a 200 ppm test suspension (equivalent to a rate of 500 g/ha) or as a 40 ppm test suspension to the point of runoff on the test plants. In Tests N-R, compounds were sprayed as a 100 g/ha test suspension (equivalent to a rate of 100 ppm) on the test plants at an application volume of 1000 L/ha. The test suspension was sprayed to the point of run-off on wheat seedlings.

[2] = tested on: Botrytis cinerea; assay: Test F: tomato Botrytis, preventive spray on tomato seedlings; settings: for pest or weed control at 200 ppm: Botrytis cinerea, 120 h, read-out: Test F disease control rating
Excerpt: as §1, with “tomato” for “wheat”

[3] = tested on: Septoria tritici; assay: Test D: wheat leaf blotch, preventive spray on wheat seedlings; settings: 200 ppm, 100 = 100% disease control, 0 = no control relative to controls; for pest or weed control at 200 ppm: Zymoseptoria tritici, 504 h, read-out: Test D disease control rating
Excerpt: as §1

[4] = tested on: Septoria nodorum; assay: Test C: wheat glume blotch, preventive spray on wheat seedlings; settings: 200 ppm, 100 = 100% disease control, 0 = no control relative to controls; for pest or weed control at 200 ppm: Parastagonospora nodorum, 216 h, read-out: Test C disease control rating
Excerpt: as §1

[5] = tested on: Alternaria solani; assay: Test H: tomato early blight, preventive spray on seedlings; settings: for pest or weed control at 200 ppm: Alternaria solani, 168 h, read-out: Test H disease control rating
Excerpt: as §1

[6] = tested on: Fusarium graminearum; assay: whole plant or invertebrate; settings: for Test E disease control rating: 200 ppm, 100 = 100% disease control, 0 = no control relative to controls; for pest or weed control at 200 ppm: Fusarium graminearum, in Triticum aestivum, 192 h, read-out: Test E disease control rating
[7] = tested on: Colletotrichum orbiculare; assay: Test I: cucumber Colletotrichum anthracnose, preventive spray on cucumber seedlings; settings: 100 = 100% disease control, 0 = no control relative to controls; for pest or weed control at 200 ppm: Colletotrichum orbiculare, 144 h, read-out: Test I disease control rating; for Test I disease control rating: 200 ppm
Excerpt: as §1, with “cucumber” for “wheat”

[8] = tested on: Erysiphe graminis f. sp. tritici; assay: Test A: wheat powdery mildew, preventive spray on wheat seedlings; settings: 200 ppm; 100 = 100% disease control, 0 = no control relative to controls
Excerpt: as §1

[9] = 200 ppm, 100 = 100% disease control, 0 = no control relative to controls

| SMILES | Test B disease control rating [1] [%] | Test F disease control rating [2, 9] [%] | Test D disease control rating [3] [%] | Test C disease control rating [4] [%] | Test H disease control rating ([5]; 40 ppm (marked *)) | Test E disease control rating [6] [%] | pest or weed control at 200 ppm [1] [%] | pest or weed control at 200 ppm [2, 9] [%] | pest or weed control at 200 ppm [7] [%] | pest or weed control at 200 ppm [3] [%] | pest or weed control at 200 ppm [4] [%] | pest or weed control at 200 ppm [5, 9] [%] | pest or weed control at 200 ppm [6] [%] | Test I disease control rating [7] [%] | Test H disease control rating [5, 9] [%] | Test F disease control rating ([2]; 40 ppm (marked *)) | Test A disease control rating [8] [%] |
| --- | --- | --- | --- | --- | --- | --- | --- | --- | --- | --- | --- | --- | --- | --- | --- | --- | --- |
| COC[C@H](C)Nc1nccc(-c2ncnc(Nc3ccc(F)cc3)n2)n1 [Compound 13] | 100 | 87 | 26 | 100 | 98* % | 96 | – | – | – | – | – | – | – | – | – | – | – |
| COCC(C)Nc1cc(-c2ccnc(Nc3c(C)cccc3Cl)n2)ncn1 (stereo not drawn) [Compound 110, N^2-(2-chloro-6-methylphenyl)-N^6′-(2-methoxy-1-methylethyl) [4,4′-bipyrimidine]-2,6′-diamine] | – | – | – | – | – | – | 89 | 65 | 97 | 9 | 60 | 89 | 0 | – | – | – | – |
| CC(CO)Nc1nccc(-c2ncnc(Nc3cccc(F)c3)n2)n1 (stereo not drawn) [Compound 7] | 99 | 0 | 87 | 100 | – | 0 | – | – | – | – | – | – | – | 96 | 0 | – | – |
| CC(=O)OCC(C)Nc1nccc(-c2ncnc(Nc3cccc(F)c3)n2)n1 (stereo not drawn) [Compound 8] | 97 | 0 | 42 | 95 | – | 77 | – | – | – | – | – | – | – | 0 | 41 | – | – |
| Clc1ccccc1Nc1cc(-c2ccnc(NC3CCOCC3)n2)ccn1 [Compound 101, 4-[2-[(2-chlorophenyl)amino]-4-pyridinyl]-N-(tetrahydro-2H-pyran-4-yl)-2-pyrimidinamine] | – | – | – | – | – | – | 99 | 99 | 97 | 53 | 100 | 92 | 97 | – | – | – | – |
| COC[C@H](C)Nc1nccc(-c2ncnc(Nc3ccc(F)c(F)c3)n2)n1 [Compound 29] | 100 | 91 | 90 | 100 | 97* % | 99 | – | – | – | – | – | – | – | – | – | – | – |
| COC[C@H](C)Nc1nccc(-c2ncnc(Nc3ccc(Cl)cc3)n2)n1 [Compound 15] | 32 | 0 | 0 | 92 | – | 0 | – | – | – | – | – | – | – | 93 | 90 | – | – |
| COC[C@H](C)Nc1nccc(-c2ncnc(Nc3ccccc3F)n2)n1 [Compound 17] | 86 | 97 | 66 | 99 | – | 0 | – | – | – | – | – | – | – | 98 | 90 | – | – |
| COC(C)CNc1nccc(-c2ccnc(Nc3cccc(F)c3)c2)n1 (stereo not drawn) [Compound 96, 4-[2-[(3-fluorophenyl)amino]-4-pyridinyl]-N-(2-methoxypropyl)-2-pyrimidinamine] | – | – | – | – | – | – | 85 | 86 | 0 | 28 | 99 | 0 | 0 | – | – | – | – |
| COC[C@H](C)Nc1nccc(-c2ncnc(Nc3ccc(Cl)c(Cl)c3)n2)n1 [Compound 14] | 79 | 55 | 0 | 100 | – | 92 | – | – | – | – | – | – | – | – | 95 | – | – |
| COC[C@H](C)Nc1nccc(-c2ncnc(Nc3cccc(I)c3)n2)n1 [Compound 12] | 79 | 37 | 0 | 100 | – | 96 | – | – | – | – | – | – | – | – | 98 | – | – |
| Fc1cccc(Nc2ncnc(-c3ccnc(NC4CC4)n3)n2)c1 [Compound 9] | 100 | 73 | 20 | 99 | – | 80 | – | – | – | – | – | – | – | 100 | 99 | – | – |
| COC[C@H](C)Nc1nccc(-c2ncnc(Nc3cc(Cl)cc(Cl)c3)n2)n1 [Compound 28] | 73 | – | 0 | 99 | – | 90 | – | – | – | – | – | – | – | 96 | 85 | 84* % | – |
| COC[C@H](C)Nc1nccc(-c2ncnc(Nc3ccc(C)c(C)c3)n2)n1 [Compound 24] | 97 | 70 | 24 | 100 | – | 99 | – | – | – | – | – | – | – | – | 100 | – | – |
| COC[C@H](C)Nc1nccc(-c2ncnc(Nc3cccc(F)c3)n2)n1 [Compound 5, N-(3-fluorophenyl)-4-[2-[[(1S)-2-methoxy-1-methylethyl]amino]-4-pyrimidinyl]-1,3,5-triazin-2-amine] | – | – | – | – | – | – | 100 | 80 | 99 | 98 | 100 | 0 | 98 | – | – | – | – |
| COCC(C)(C)Nc1nccc(-c2ncnc(Nc3cccc(F)c3)n2)n1 [Compound 6] | 97 | 85 | 58 | 100 | – | 84 | – | – | – | – | – | – | – | 0 | 98 | – | – |
| COC[C@H](C)Nc1nccc(-c2ncnc(Nc3ccc(C)cc3)n2)n1 [Compound 20] | 74 | 99 | 20 | 100 | – | 91 | – | – | – | – | – | – | – | 0 | 96 | – | – |
| CC(C)(C)Nc1nccc(-c2ncnc(Nc3cccc(F)c3)n2)n1 [Compound 10] | 93 | 0 | 10 | 100 | – | 61 | – | – | – | – | – | – | – | 99 | 97 | – | – |
| COCC(C)Nc1nccc(-c2ccnc(Nc3c(F)ccc(F)c3F)c2)n1 (stereo not drawn) [Compound 70] | 98 | 97 | 17 | 99 | – | 84 | – | – | – | – | – | – | – | 98 | – | – | 95 |
| Fc1cccc(Nc2cc(-c3ccnc(NC4CCOC4)n3)ccn2)c1 (stereo not drawn) [Compound 74] | 94 | 48 | 72 | 99 | – | 0 | – | – | – | – | – | – | – | 17 | – | – | 0 |
